# Laboratory results reported in patent US20150307938A1, “METHOD TO IDENTIFY A NOVEL CLASS OF IMMUNOLOGIC ADJUVANTS” (Lancell, L.L.C., priority 2011, published 2015).
# Tested on: skin
# Assay: Affymetrix microarray of skin, DBP-4 hr and analogs vs. untreated; gene selection by log-2 fold change, Wilcoxon, Kendall tau (Tables 8, 9)
# Type: in vivo, mouse
# Settings: mouse, in vivo
smiles,measurement,value
"CCCCOC(=O)c1ccccc1C(=O)OCCCC [DBP, dibutylphthalate]",Dbp NM_016974_at ≧2-Fold change,No
same,Deptor NM_001037937_at ≧2-Fold change,No
same,Dlgap4 NM_001042487_at ≧2-Fold change,No
same,Dlgap4 NM_001042488_at ≧2-Fold change,No
same,Dusp6 (NM_026268_at) ≧2-Fold change,Yes
same,Dusp7 (NM_153459_at) ≧2-Fold change,Yes
same,Ear5 NM_019398_at ≧2-Fold change,No
same,Epgn (NM_053087_at) ≧2-Fold change,Yes
same,Fam134b NM_001034851_at ≧2-Fold change,No
same,Gcdh NM_001044744_at ≧2-Fold change,No
same,Gm10228 XM_001474297_at ≧2-Fold change,No
same,Gm10228 XM_003086004_at ≧2-Fold change,No
same,Gm10229 XM_003086003_at ≧2-Fold change,No
same,Gsdmc NM_031378_at ≧2-Fold change,No
same,Gzmb (NM_013542_at) ≧2-Fold change,Yes
same,H19 NR_001592_at ≧2-Fold change,No
same,Havcr2 (NM_134250_at) ≧2-Fold change,Yes
same,Ier2 (NM_010499_at) ≧2-Fold change,Yes
same,Ier3 (NM_133662_at) ≧2-Fold change,Yes
same,Ifi202b (NM_011940_at) ≧2-Fold change,Yes
same,Il1f6 (NM_019450_at) ≧2-Fold change,Yes
same,Il1rl1 NM_001025602_at ≧2-Fold change,No
same,Il6 (NM_031168_at) ≧2-Fold change,Yes
same,Il20 (NM_021380_at) ≧2-Fold change,Yes
same,Inpp5a NM_001127363_at ≧2-Fold change,No
same,Inpp5d NM_001110192_at ≧2-Fold change,No
same,Inpp5d NM_001110193_at ≧2-Fold change,No
same,Jdp2 (NM_030887_at) ≧2-Fold change,Yes
same,Jun (NM_010591_at) ≧2-Fold change,Yes
same,Klhdc5 NM_001081237_at ≧2-Fold change,No
same,Klk6 (NM_011177_at) ≧2-Fold change,Yes
same,Klrb1b (NM_030599_at) ≧2-Fold change,Yes
same,Krt25 (NM_133730_at) ≧2-Fold change,Yes
same,Krt27 (NM_010666_at) ≧2-Fold change,Yes
same,Krt33a NM_027983_at ≧2-Fold change,No
same,Krt34 NM_027563_at ≧2-Fold change,No
same,Krt35 (NM_016880_at) ≧2-Fold change,Yes
same,Krt71 (NM_019956_at) ≧2-Fold change,Yes
same,Krtap1-5 NM_027157_at ≧2-Fold change,No
same,Krtap3-1 NM_023511_at ≧2-Fold change,No
same,Krtap3-3 NM_025524_at ≧2-Fold change,No
same,Krtap4-2 NM_026807_at ≧2-Fold change,No
same,Krtap4-16 (NM_001013823_at) ≧2-Fold change,No
same,Krtap5-2 NM_027844_at ≧2-Fold change,No
same,Krtap9-3 NM_029351_at ≧2-Fold change,No
same,Krtap13-1 NM_183189_at ≧2-Fold change,No
same,Krtap16-1 NM_130870_at ≧2-Fold change,No
same,Krtap16-5 NM_130857_at ≧2-Fold change,No
same,Krtap16-7 NM_028621_at ≧2-Fold change,No
same,Krtap16-8 NM_130856_at ≧2-Fold change,No
same,Krtap16-9 NM_130876_at ≧2-Fold change,No
same,Krtap16-10 NM_183296_at ≧2-Fold change,No
same,Krtap28-13 XM_896507_at ≧2-Fold change,No
same,Krtap28-13 XM_919110_at ≧2-Fold change,No
same,LOC100044068 (XM_001473873_at) ≧2-Fold change,Yes
same,LOC100503254 XM_003085741_at ≧2-Fold change,No
same,LOC100504977 (XM_003085794_at) ≧2-Fold change,Yes
same,Lmod2 NM_053098_at ≧2-Fold change,No
same,Lyz2 NM_017372_at ≧2-Fold change,No
same,Maff (NM_010755_at) ≧2-Fold change,Yes
same,Map3k6 (NM_016693_at) ≧2-Fold change,Yes
same,Mcoln2 (NM_026656_at) ≧2-Fold change,Yes
same,Mfhas1 NM_001081279_at ≧2-Fold change,No
same,Mfsd4 NM_001114662_at ≧2-Fold change,No
same,Mia1 NM_019394_at ≧2-Fold change,No
same,Mrpl44 NM_001081210_at ≧2-Fold change,No
same,Ms4a6d NM_026835_at ≧2-Fold change,No
same,Mt1 (NM_013602_at) ≧2-Fold change,Yes
same,Mylpf NM_016754_at ≧2-Fold change,No
same,Myoz2 NM_021503_at ≧2-Fold change,No
same,NA (AFFX-18SRNAMur/X00686_3_at) ≧2-Fold change,No
same,NA (AFFX-18SRNAMur/X00686_5_at) ≧2-Fold change,No
same,NA (AFFX-18SRNAMur/X00686_M_at) ≧2-Fold change,No
same,NA (AFFX-BioB-3_at) ≧2-Fold change,No
same,NA (AFFX-BioB-5_at) ≧2-Fold change,No
same,NA (AFFX-BioB-M_at) ≧2-Fold change,No
same,NA (AFFX-BioC-3_at) ≧2-Fold change,No
same,NA (AFFX-BioC-5_at) ≧2-Fold change,No
same,NA (AFFX-BioDn-3_at) ≧2-Fold change,No
same,NA (AFFX-BioDn-5_at) ≧2-Fold change,No
same,NA (AFFX-ThrX-5_at) ≧2-Fold change,No
same,Ncbp1 NM_001033201_at ≧2-Fold change,No
same,Nfil3 (NM_017373_at) ≧2-Fold change,Yes
same,Nfkbia (NM_010907_at) ≧2-Fold change,Yes
same,Nfkbiz (NM_030612_at) ≧2-Fold change,Yes
same,Nolc1 NM_001039351_at ≧2-Fold change,No
same,Nolc1 NM_001039352_at ≧2-Fold change,No
same,Nolc1 NM_001039353_at ≧2-Fold change,No
same,Nr4a2 (NM_013613_at) ≧2-Fold change,Yes
